# Experimental data: ChEMBL document CHEMBL3792276, “Design and synthesis of diamide-coupled benzophenones as potential anticancer agents” (Eur J Med Chem, 2016)
# The source made the active and inactive calls. The calls are words filed in the database; no cut-off is given here.
# Tests used:
# A549 [1] = test: Cytotoxicity against human A549 cells after 48 hrs by trypan blue assay; type: functional, cell-based
# DLA [2] = test: (§1) Cytotoxicity against mouse DLA cells after 48 hrs by MTT assay; type: functional, cell-based
# MCF7 [3] = test: Cytotoxicity against human MCF7 cells after 48 hrs by trypan blue assay; type: functional, cell-based
# A549 [4] = test: Cytotoxicity against human A549 cells after 48 hrs by MTT assay; type: functional, cell-based
# MCF7 [5] = test: Cytotoxicity against human MCF7 cells after 48 hrs by MTT assay; type: functional, cell-based
# MCF7 [6] = test: Cytotoxicity against human MCF7 cells after 48 hrs by LDH leak assay; type: functional, cell-based
# A549 [7] = test: Cytotoxicity against human A549 cells after 48 hrs by LDH leak assay; type: functional, cell-based
# DLA [8] = test: (§2) Cytotoxicity against mouse DLA cells after 48 hrs by LDH leak assay; type: functional, cell-based
# DLA [9] = test: (§3) Cytotoxicity against mouse DLA cells after 48 hrs by trypan blue assay; type: functional, cell-based
# [10] = as §1; type: functional, cell-based
# [11] = Antitumor activity against mouse DLA cells allografted in Swiss mouse assessed as increase in animal survival time at 75 mg/kg, ip administered as 3 doses on alternative days post 4 days of tumor implantation; type: functional
# Mus musculus [12] = test: Decrease in ascites fluid secretion in Swiss albino mouse allografted with mouse DLA cells at 75 mg/kg, ip administered as 3 doses on alternative days post 4 days of tumor implantation; type: functional, organism-based
# [13] = Antitumor activity against mouse DLA cells allografted in Swiss albino mouse assessed as inhibition of tumor growth at 75 mg/kg, ip administered as 3 doses on alternative days post 4 days of tumor implantation measured after final dose of drug challenge; type: functional; conditions: 96 h
# Chorioallantoic membrane = test: Antiangiogenic activity in chicken chorioallantoic membrane assessed as inhibition of rVEGF-induced neovascularization measured upto 12 days; type: functional; conditions: Gallus gallus
# [14] = as §2; type: functional, cell-based
# Mus musculus [15] = organism: Mus musculus; test: Antiangiogenic activity against Swiss albino mouse allografted with mouse DLA cells assessed as decrease in peritoneal angiogenesis measured as […]; type: functional
# [16] = Antitumor activity against mouse DLA cells allografted in Swiss albino mouse assessed as induction of tumor regression at 75 mg/kg, ip administered as 3 doses on alternative days post 4 days of tumor implantation; type: functional
# [17] = as §3; type: functional, cell-based
# Mus musculus [18] = test: Decrease in cell count Swiss albino mouse allografted with mouse DLA cells at 75 mg/kg, ip administered as 3 doses on alternative days post 4 days of tumor implantation; type: functional, organism-based
Compound,Activity (A549 [1]),Activity (DLA [2]),Activity (MCF7 [3]),Activity (A549 [4]),Activity (MCF7 [5]),Activity (MCF7 [6]),Activity (A549 [7]),Activity (DLA [8]),Activity (DLA [9]),also measured
Cc1cc(C(=O)c2ccccc2)ccc1OCC(=O)Nc1ccccc1NC(=O)COc1c(F)cc(C(=O)c2ccc(Cl)cc2)cc1Cl,inactive,inactive,inactive,inactive,inactive,inactive,inactive,inactive,inactive,
Cc1cc(C(=O)c2ccccc2)ccc1OCC(=O)Nc1ccccc1NC(=O)COc1ccc(C(=O)c2ccc(Br)cc2)cc1C,inactive,inactive,inactive,inactive,inactive,inactive,inactive,inactive,inactive,
Cc1cc(C(=O)c2ccc(Br)cc2)ccc1OCC(=O)Nc1ccccc1NC(=O)COc1ccc(C(=O)c2ccccc2C)cc1C,,,,,,,,,,"IC50 (A549 [1]; A549, 48 h): 20 µM; IC50 [10]: 23 µM; MST [11]: 37 days; IC50 (MCF7 [3]; MCF7, 48 h): 23 µM; IC50 (A549 [4]; A549, 48 h): 20 µM; inhibition (Mus musculus [12]): Active; inhibition in vivo at 75 mg/kg [13]: 80%; IC50 (MCF7 [5]; MCF7, 48 h): 23 µM; inhibition (Chorioallantoic membrane): Active; IC50 (MCF7 [6]; MCF7, 48 h): 23 µM; IC50 (A549 [7]; A549, 48 h): 20 µM; IC50 [14]: 23 µM; inhibition (INH) (Mus musculus [15]): >50%; fold change (FC) [16]: 2.5; IC50 [17]: 23 µM; inhibition (Mus musculus [18]): Active"
Cc1ccc(C(=O)c2ccc(OCC(=O)Nc3ccccc3NC(=O)COc3ccc(C(=O)c4ccc(Br)cc4)cc3C)c(C)c2)cc1,inactive,inactive,inactive,inactive,inactive,inactive,inactive,inactive,inactive,
Cc1cc(C(=O)c2ccccc2)c(C)cc1OCC(=O)Nc1ccccc1NC(=O)COc1cc(C)c(C(=O)c2ccccc2)cc1C,inactive,inactive,inactive,inactive,inactive,inactive,inactive,inactive,inactive,
Cc1cc(C(=O)c2ccc(Br)cc2)ccc1OCC(=O)Nc1ccccc1NC(=O)COc1c(F)cc(C(=O)c2ccc(Cl)cc2)cc1Cl,inactive,inactive,inactive,inactive,inactive,inactive,inactive,inactive,inactive,
Cc1cc(C(=O)c2ccc(Br)cc2)ccc1OCC(=O)Nc1ccccc1NC(=O)COc1cc(C)c(C(=O)c2ccccc2)cc1C,inactive,inactive,inactive,inactive,inactive,inactive,inactive,inactive,inactive,
Cc1cc(C(=O)c2ccccc2)ccc1OCC(=O)Nc1ccccc1NC(=O)COc1ccc(C(=O)c2ccccc2C)cc1C,inactive,inactive,inactive,inactive,inactive,inactive,inactive,inactive,inactive,
O=c1[nH]cc(F)c(=O)[nH]1,inactive,inactive,inactive,inactive,inactive,inactive,inactive,inactive,inactive,
Cc1cc(C(=O)c2ccccc2)ccc1OCC(=O)Nc1ccccc1NC(=O)COc1ccc(C(=O)c2ccccc2)cc1C,inactive,inactive,inactive,inactive,inactive,inactive,inactive,inactive,inactive,
Cc1cc(C(=O)c2ccccc2)ccc1OCC(=O)Nc1ccccc1NC(=O)COc1cc(C)c(C(=O)c2ccccc2)cc1C,inactive,inactive,inactive,inactive,inactive,inactive,inactive,inactive,inactive,
Cc1cc(C(=O)c2ccc(Br)cc2)ccc1OCC(=O)Nc1ccccc1NC(=O)COc1ccc(C(=O)c2ccc(Br)cc2)cc1C,inactive,inactive,inactive,inactive,inactive,inactive,inactive,inactive,inactive,
Cc1ccc(C(=O)c2ccc(OCC(=O)Nc3ccccc3NC(=O)COc3ccc(C(=O)c4ccccc4)cc3C)c(C)c2)cc1,inactive,inactive,inactive,inactive,inactive,inactive,inactive,inactive,inactive,
